Reference: the OPERA property sets (Mansouri et al. 2018)

Settings: not given

In order of falling melting point:
1. N#C[S-].[Na+]  287 °C
2. S=C1NC(=S)C(c2ccccc2)(c2ccccc2)N1  263 °C
3. C[C@]12CCc3c(ccc4cc(O)ccc34)[C@@H]1CCC2=O  258 °C
4. COc1cc(NS(=O)(=O)c2ccc(N)cc2)nc(OC)n1  204 °C
5. Cc1cccc(C)c1NC(=O)CN(CC(=O)O)CC(=O)O  202 °C
6. Clc1cc2oc3c(Cl)c(Cl)c(Cl)cc3c2cc1Cl  196 °C
7. CC1=C[C@H](O)CC(C)(C)[C@H]1/C=C/C(C)=C/C=C/C(C)=C/C=C/C=C(C)/C=C/C=C(C)/C=C/C1=C(C)C[C@@H](O)CC1(C)C  196 °C
8. CNCCc1ccc(O)c(O)c1  188 °C
9. C[C@]12CCC(=O)C[C@@H]1CC[C@@H]1[C@@H]2CC[C@]2(C)[C@@H](O)CC[C@@H]12  181 °C
10. CC(c1c(O)c2ccccc2oc1=O)c1c(O)c2ccccc2oc1=O  178 °C
11. COC(=O)c1sccc1S(=O)(=O)NC(=O)Nc1nc(C)nc(OC)n1  176 °C
12. C[N+](C)(C)CCOC(=O)NCCCCCCNC(=O)OCC[N+](C)(C)C.[Br-].[Br-]  175 °C
13. Cc1c(F)c(F)c(C(=O)O)c(F)c1F  174 °C
14. COP(=S)(OC)SCc1nc(N)nc(N)n1  165 °C
15. COC1=C[C@@H]2[C@@H]3Cc4ccc(OC)c(O)c4[C@]2(CCN3C)CC1=O  162 °C
16. NC(=O)c1ccccc1Br  160 °C
17. OC(c1ccccc1)(c1ccccc1)C1CCNCC1  160 °C
18. C/C=C(\C)C(=O)O[C@H]1C[C@@H](OC(C)=O)[C@@]2(C(=O)OC)CO[C@H]3[C@@H](O)[C@@](C)([C@]45O[C@@]4(C)[C@H]4C[C@@H]5O[C@@H]5OC=C[C@@]54O)[C@H]4[C@]1(CO[C@]4(O)C(=O)OC)[C@@H]32  156 °C
19. NC(=S)Nc1ccccc1  154 °C
20. CCCCOc1ccc(CC(=O)NO)cc1  154 °C
21. NC(=S)Nc1ccccc1Cl  146 °C
22. NCCCC(N)C(=O)O (stereo unspecified)  140 °C
23. CCCC(=O)C=Cc1ccc(O)c(O)c1  132 °C
24. c1ccc(NNc2ccccc2)cc1  131 °C
25. CC(Oc1ccc2ccccc2c1)C(O)=Nc1ccccc1 (stereo unspecified)  128 °C
26. Cc1c(C)c(C)c(O)c(C)c1C  128 °C
27. CC(C)(Sc1cc(C(C)(C)C)c(O)c(C(C)(C)C)c1)Sc1cc(C(C)(C)C)c(O)c(C(C)(C)C)c1  125 °C
28. N#Cc1ccc(N)cc1Cl  118 °C
29. COc1ccc2[nH]cc(CCNC(C)=O)c2c1  117 °C
30. CC(=O)c1ccc(C(C)=O)cc1  112 °C
31. CCCCCCCC(N)=O  108 °C
32. O=C(CO)c1ccccc1  90 °C
33. CCC(C)(C)OC(N)=O  86 °C
34. O=C(c1ccccc1)c1ccncc1  72 °C
35. OCC(O)COc1ccccc1Cl (stereo unspecified)  71.5 °C
36. O=C(O)Cc1ccco1  68.5 °C
37. C=C(C)[C@H]1CCC(C)=C[C@@H]1c1c(O)cc(CCCCC)cc1O  67 °C
38. Clc1cncc(Cl)c1  66 °C
39. CC(=O)Oc1ccc(Br)cc1C(=O)O  60 °C
40. CCC(C)Nc1c([N+](=O)[O-])cc(C(C)(C)C)cc1[N+](=O)[O-] (stereo unspecified)  60 °C
41. C1CCc2nnnn2CC1  59.5 °C
42. C[Si](Cn1cncn1)(c1ccc(F)cc1)c1ccc(F)cc1  54 °C
43. c1ccc(Nc2ccccc2)cc1  52.9 °C
44. Cc1cccc(C)c1O  45.7 °C
45. CC(C)=CC1C(C(=O)OCc2coc(Cc3ccccc3)c2)C1(C)C (stereo unspecified)  44.2 °C
46. NCCCCCO  38.5 °C
47. CC(=O)N(C(C)=O)c1ccccc1  37.5 °C
48. Cc1ccn(-c2ccccc2)n1  37 °C
49. CCC(C)c1ccccc1OC(=O)NC (stereo unspecified)  31.5 °C
50. CCOP(=S)(OCC)Oc1cnc2ccccc2n1  31.5 °C
51. O=C(O)CCCCCc1ccccc1  23 °C
52. CCSC(=O)N(CC)C1CCCCC1  11.5 °C
53. CCCCCCCCCCCCCCCC(OC)OC  10 °C
54. CC=Cc1ccc2c(c1)OCO2  8.2 °C
55. FC(F)C(F)(F)OCC(Cn1cncn1)c1ccc(Cl)cc1Cl (stereo unspecified)  6 °C
56. CCCCCCCCCF  1 °C
57. O=[N+]([O-])c1ccccc1F  -6 °C
58. C=CCc1ccccc1O  -6 °C
59. Fc1c(F)c(F)c(Br)c(F)c1F  -31 °C
60. COB(OC)OC  -31.6 °C
61. FC1(F)C(F)(F)C(F)(F)C1(F)F  -40.1 °C
62. CCCCCCCCOC(=O)CC  -42.6 °C
63. CC(=O)OCCOCCOCCOC(C)=O  -50 °C
64. CC(O)CO (stereo unspecified)  -60 °C
65. C=CC(=O)OCC  -71.2 °C
66. C[B]C  -72.5 °C
67. CCCC(O)CC(C)C (stereo unspecified)  -81 °C
68. CCOC(=O)C(C)C  -88.2 °C
69. C=C=O  -151 °C

In order of rising boiling point:
1. C=C=O  -49.8 °C
2. CC(C)F  -10 °C
3. FC1(F)C(F)(F)C(F)(F)C1(F)F  -5.9 °C
4. CB(C)Cl  4.9 °C
5. COC(=O)C(F)(F)F  43.2 °C
6. COB(OC)OC  68 °C
7. C[B]C  70.5 °C
8. C=CC(=O)OCC  99.4 °C
9. CCOC(=O)C(C)C  110 °C
10. Fc1c(F)c(F)c(Br)c(F)c1F  137 °C
11. CCOC(C)CO (stereo unspecified)  140 °C
12. C=CCCCO  141 °C
13. CC(C)CC(=O)OC(C)C  142 °C
14. COCCC(=O)OC  143 °C
15. CCCC(C)CC=O (stereo unspecified)  143 °C
16. CC(CO)N(C)C (stereo unspecified)  150 °C
17. CC=C(C)C(C)C(C)=O (stereo unspecified)  154 °C
18. CCCCCC(C)O (stereo unspecified)  159 °C
19. CCCOC(=O)CCl  161 °C
20. CC(=O)OCCCCl  164 °C
21. CCCC(O)CC(C)C (stereo unspecified)  164 °C
22. CC(CCN(C)C)N(C)C (stereo unspecified)  165 °C
23. CCCCCCCCCF  168 °C
24. CN(C)CCC#N  173 °C
25. C=C[Si](OC(C)C)(OC(C)C)OC(C)C  180 °C
26. CCCc1ccncc1  185 °C
27. N#CCI  185 °C
28. CC(O)CO (stereo unspecified)  188 °C
29. CCOc1cccc(C)c1  192 °C
30. Cc1cccc(C)c1O  201 °C
31. CC(C)C(=O)OC1CCCCC1  204 °C
32. C=CCc1ccc(OC)cc1  216 °C
33. C=CCc1ccccc1O  220 °C
34. NCCCCCO  222 °C
35. CCCCCCCCOC(=O)CC  228 °C
36. CCCCCCCC(N)=O  239 °C
37. CC=Cc1ccc2c(c1)OCO2  253 °C
38. Cc1ccn(-c2ccccc2)n1  255 °C
39. Cc1c(C)c(C)c(O)c(C)c1C  267 °C
40. CC(=O)OCCOCCOCCOC(C)=O  286 °C
41. c1ccc(Nc2ccccc2)cc1  302 °C
42. c1ccc(NNc2ccccc2)cc1  309 °C
43. O=C(c1ccccc1)c1ccncc1  315 °C

In order of rising log10 vapour pressure (mmHg):
1. CC(Oc1ccc2ccccc2c1)C(O)=Nc1ccccc1 (stereo unspecified)  -10.7
2. COC(=O)c1sccc1S(=O)(=O)NC(=O)Nc1nc(C)nc(OC)n1  -9.89
3. Clc1cc2oc3c(Cl)c(Cl)c(Cl)cc3c2cc1Cl  -8.58
4. CCCC(=NOCC)C1=C(O)CC(CC(C)SCC)CC1=O (stereo unspecified)  -6.8
5. COP(=S)(OC)SCc1nc(N)nc(N)n1  -6.01
6. FC(F)C(F)(F)OCC(Cn1cncn1)c1ccc(Cl)cc1Cl (stereo unspecified)  -5.87
7. Clc1ccc(-c2cc(Cl)c(Cl)c(Cl)c2Cl)cc1Cl  -5.79
8. CCOP(=S)(OCC)Oc1cnc2ccccc2n1  -5.58
9. CCC(C)Nc1c([N+](=O)[O-])cc(C(C)(C)C)cc1[N+](=O)[O-] (stereo unspecified)  -4.9
10. CCC(C)c1ccccc1OC(=O)NC (stereo unspecified)  -3.85
11. c1ccc(NNc2ccccc2)cc1  -3.36
12. c1ccc(Nc2ccccc2)cc1  -3.17
13. CCSC(=O)N(CC)C1CCCCC1  -2.7
14. CCCCCCCCCCCC(=O)OC(C)C  -2.57
15. CCCCN(CCCC)N=O  -1.33
16. CC(O)CO (stereo unspecified)  -0.889
17. Cc1cccc(C)c1O  -0.767
18. CCCCCC(C)O (stereo unspecified)  0.0899
19. Fc1c(F)c(F)c(Br)c(F)c1F  0.903
20. CCOC(=O)C(C)C  1.4
21. C=CC(=O)OCC  1.59
22. COB(OC)OC  2.13
23. FC1(F)C(F)(F)C(F)(F)C1(F)F  3.37
24. C=C=O  4.02

With `C=CC(=O)OCC` the ready biodegradability was “readily biodegradable”.
For `CCC(C)c1ccccc1OC(=O)NC` (stereo unspecified), the ready biodegradability was “not readily biodegradable”.
With `c1ccc(Nc2ccccc2)cc1` the ready biodegradability was “not readily biodegradable”.
In the case of `BrC1CCC(Br)C(Br)CCC1Br` (stereo unspecified), the ready biodegradability is reported as “not readily biodegradable”.
With `CCSC(=O)N(CC)C1CCCCC1` the ready biodegradability was “not readily biodegradable”.
With `CC(O)CO` (stereo unspecified) the ready biodegradability was “readily biodegradable”.
In the case of `CCCCCCCCCCCCCCCCCC(=O)NCO`, the ready biodegradability is reported as “readily biodegradable”.
With `O=S(=O)(O)c1cccc2c(S(=O)(=O)O)cccc12` the ready biodegradability was “readily biodegradable”.
With `COP(=S)(OC)SCc1nc(N)nc(N)n1` the ready biodegradability was “not readily biodegradable”.
In the case of `CCCCCCCCCCCCCCCCCCC1CC(=O)OC1=O` (stereo unspecified), the ready biodegradability is reported as “not readily biodegradable”.
In the case of `C=CCc1ccccc1O`, the ready biodegradability is reported as “readily biodegradable”.
For `O=C(Nc1ccc(Cc2ccc(NC(=O)N3CC3)cc2)cc1)N1CC1`, the ready biodegradability was “not readily biodegradable”.
With `Cc1cccc(C)c1O` the ready biodegradability was “not readily biodegradable”.

In order of falling log10 Koc (L/kg):
1. CC(C)C(Nc1ccc(C(F)(F)F)cc1Cl)C(=O)OC(C#N)c1cccc(Oc2ccccc2)c1 (stereo unspecified)  5.71
2. CC(C)=CC1C(C(=O)OCc2coc(Cc3ccccc3)c2)C1(C)C (stereo unspecified)  5
3. CCC(C)Nc1c([N+](=O)[O-])cc(C(C)(C)C)cc1[N+](=O)[O-] (stereo unspecified)  3.98
4. C[Si](Cn1cncn1)(c1ccc(F)cc1)c1ccc(F)cc1  3.22
5. c1ccc(NNc2ccccc2)cc1  2.98
6. c1ccc(Nc2ccccc2)cc1  2.78
7. CCSC(=O)N(CC)C1CCCCC1  2.54
8. CCCC(=NOCC)C1=C(O)CC(CC(C)SCC)CC1=O (stereo unspecified)  2
9. CCC(C)c1ccccc1OC(=O)NC (stereo unspecified)  1.71
10. COC(=O)c1sccc1S(=O)(=O)NC(=O)Nc1nc(C)nc(OC)n1  1.45
11. CC(O)CO (stereo unspecified)  0.36

In order of falling log10 Koa:
1. Clc1cc2oc3c(Cl)c(Cl)c(Cl)cc3c2cc1Cl  10.4
2. Clc1cc2c(Cl)ccc(Cl)c2cc1Cl  8.13
3. c1ccc(Nc2ccccc2)cc1  7.64

In order of falling log10 Henry constant (atm·m³/mol):
1. Clc1cccc(-c2ccccc2)c1Cl  -3.64
2. Cc1cccc(C)c1O  -5.18

Same assay, conditions: fish

In order of falling log10 BCF:
1. Clc1cc2oc3c(Cl)c(Cl)c(Cl)cc3c2cc1Cl  4.13
2. Clc1cccc(-c2ccccc2)c1Cl  3.98
3. c1ccc(Nc2ccccc2)cc1  2.18
4. CCC(C)c1ccccc1OC(=O)NC (stereo unspecified)  1.41
5. CCCCC(CC)COC(=O)CC(C(=O)OCC(CC)CCCC)S(=O)(=O)O (stereo unspecified)  0.97

In order of rising log10 biotransformation half-life (days):
1. CCC(C)c1ccccc1OC(=O)NC (stereo unspecified)  -0.52
2. c1ccc(Nc2ccccc2)cc1  0.35
3. FC(F)C(F)(F)OCC(Cn1cncn1)c1ccc(Cl)cc1Cl (stereo unspecified)  1.23
4. Clc1cc2oc3c(Cl)c(Cl)c(Cl)cc3c2cc1Cl  1.36
5. Clc1cccc(-c2ccccc2)c1Cl  2.15
6. Clc1ccc(-c2cc(Cl)c(Cl)c(Cl)c2Cl)cc1Cl  2.73
